Test results from US11819556B2, “Stabilized compositions of radionuclides and uses thereof” (RayzeBio, Inc., priority 2021, dated 2023).
Where two headings read alike, the source gives them in different places.

Conditions: 0.03 mCi/ml, excipient 1 mg/ml in sodium acetate-acetic acid buffer pH 5.80, 25° C.
Description: After drying in an incubator at a temperature of 38° C., the radio-TLC conversion was analyzed at different time points with a radio-TLC reader (Eckert & Ziegler AR-2000) set at High Voltage=1000 (to ensure alpha detection) until the ratio between labeled product and the free Ac225 ion no longer change (typically after 6-8 hours of TLC separation to ensure equilibrium between Ac225 and daughter nuclides).
The formulations were buffered with sodium acetate-acetic acid 0.4 M solution to pH 5.80 (±0.10). […] Sodium L-Ascorbate/L-Ascorbic acid buffer was adjusted to pH 5.80 (±0.10). Water for Injection (WFI) with the same dilution without any excipient is used as the control formulation. The mixture was kept at room temperature (25° C.).

## O=C(O)CCCC[C@@H]1CCSS1 (racemic) [Lipoic Acid]
24 hours after mixing
  Percentage of ^225Ac present in [^225Ac]Ac-DOTA-TATE: 92.97%
48 hours after mixing
  Percentage of ^225Ac present in [^225Ac]Ac-DOTA-TATE: 87.93%

## CCO [10% EtOH, EtOH]
24 hours after mixing
  Percentage of ^225Ac present in [^225Ac]Ac-DOTA-TATE: 96.35%
48 hours after mixing
  Percentage of ^225Ac present in [^225Ac]Ac-DOTA-TATE: 92.16%

## O=C(O)CC(O)(CC(=O)O)C(=O)O [Citric Acid]
24 hours after mixing
  Percentage of ^225Ac present in [^225Ac]Ac-DOTA-TATE: 90.20%
48 hours after mixing
  Percentage of ^225Ac present in [^225Ac]Ac-DOTA-TATE: 82.18%

## N[C@H](CS)C(=O)O [D-Cysteine]
24 hours after mixing
  Percentage of ^225Ac present in [^225Ac]Ac-DOTA-TATE: 93.45%
48 hours after mixing
  Percentage of ^225Ac present in [^225Ac]Ac-DOTA-TATE: 87.66%

## O=C(O)CN(CCN(CC(=O)O)CC(=O)O)CCN(CC(=O)O)CC(=O)O [DTPA, Diethylenetriaminepentaacetic acid]
24 hours after mixing
  Percentage of ^225Ac present in [^225Ac]Ac-DOTA-TATE: 95.77%
48 hours after mixing
  Percentage of ^225Ac present in [^225Ac]Ac-DOTA-TATE: 91.38%

## N[C@@H](CCC(=O)N[C@@H](CS)C(=O)NCC(=O)O)C(=O)O [L-Glutathione]
24 hours after mixing
  Percentage of ^225Ac present in [^225Ac]Ac-DOTA-TATE: 91.18%
48 hours after mixing
  Percentage of ^225Ac present in [^225Ac]Ac-DOTA-TATE: 85.56%

## NCCCC[C@H](N)C(=O)O [L-Lysine]
24 hours after mixing
  Percentage of ^225Ac present in [^225Ac]Ac-DOTA-TATE: 95.45%
48 hours after mixing
  Percentage of ^225Ac present in [^225Ac]Ac-DOTA-TATE: 89.52%

## CSCC[C@H](N)C(=O)O [L-Methionine]
24 hours after mixing
  Percentage of ^225Ac present in [^225Ac]Ac-DOTA-TATE: 93.39%
48 hours after mixing
  Percentage of ^225Ac present in [^225Ac]Ac-DOTA-TATE: 89.58%

## CC(=O)N[C@@H](CS)C(=O)O [N-Acetyl-L-Cysteine]
24 hours after mixing
  Percentage of ^225Ac present in [^225Ac]Ac-DOTA-TATE: 91.19%
48 hours after mixing
  Percentage of ^225Ac present in [^225Ac]Ac-DOTA-TATE: 87.41%

## Oc1ccccc1 [Phenol]
48 hours after mixing
  Percentage of ^225Ac present in [^225Ac]Ac-DOTA-TATE: 87.88%

## O=C(O)c1ccccc1O [Salicylic Acid]
24 hours after mixing
  Percentage of ^225Ac present in [^225Ac]Ac-DOTA-TATE: 93.08%
48 hours after mixing
  Percentage of ^225Ac present in [^225Ac]Ac-DOTA-TATE: 87.65%

## O=C1O[C@H]([C@@H](O)CO)C([O-])=C1O.[Na+] [Sodium Ascorbate, pH 5.8, Sodium Ascorbate]
48 hours after mixing
  Percentage of ^225Ac present in [^225Ac]Ac-DOTA-TATE: 92.21%

## O=S([O-])O.[Na+] [Sodium Bisulfite]
24 hours after mixing
  Percentage of ^225Ac present in [^225Ac]Ac-DOTA-TATE: 0%
